Results taken from ChEMBL document CHEMBL5143508, “Design, synthesis and biological evaluation of novel o-aminobenzamide derivatives as potential anti-gastric cancer agents in vitro and in vivo” (Eur J Med Chem, 2022).
pIC50: −log10 of the molar value. Where “and” joins values, the source holds several entries; their conditions need not be identical. Equal values may be shown once. Calls of active or inactive are those of the source. No cut-off for these calls is given here.

Key:
MGC-803 [1] = assay: Induction of apoptosis in human MGC-803 cells assessed as viable cells at 2.5 uM incubated for 48 hrs by annexin V FITC/propidium iodide staining based flow cytometry (reference value: 94.4 %); format: functional; details: read-out: Activity
HGC-27 [2] = assay: Induction of cell cycle arrest in human HGC-27 cells assessed as upregulation of p21 expression at 0.5 to 8 uM incubated for 48 hrs by Western blot analysis; format: functional, cell-based; details: dose 0.5-8 µM
HGC-27 [3] = assay: Induction of apoptosis in human HGC-27 cells assessed as upregulation in Bax expression at 0.5 to 8 uM incubated for 48 hrs by Western blot analysis; format: functional, cell-based; details: dose 0.5-8 µM
MGC-803 [4] = assay: Induction of cell cycle arrest in human MGC-803 cells assessed as reduction in accumulation of cells at G2/M phase at 2.5 to 10 uM incubated for 24 hrs by PI staining based flow cytometry analysis; format: functional; details: dose 2.5-10 µM
HGC-27 [5] = assay: Induction of apoptosis in human HGC-27 cells assessed as necrotic cells at 8 uM incubated for 48 hrs by annexin V FITC/propidium iodide staining based flow cytometry (reference value: 1.24 %); format: functional
HGC-27 [6] = assay: Induction of cell cycle arrest in human HGC-27 cells assessed as upregulation of p27 expression at 0.5 to 8 uM incubated for 48 hrs by Western blot analysis; format: functional, cell-based; details: dose 0.5-8 µM
MGC-803 [7] = assay: Induction of apoptosis in human MGC-803 cells assessed as necrotic cells at 2.5 uM incubated for 48 hrs by annexin V FITC/propidium iodide staining based flow cytometry (reference value: 1.06 %); format: functional
HGC-27 [8] = assay: Induction of apoptosis in human HGC-27 cells assessed as necrotic cells at 0.5 uM incubated for 48 hrs by annexin V FITC/propidium iodide staining based flow cytometry (reference value: 1.24 %); format: functional
HGC-27 [9] = assay: Induction of apoptosis in human HGC-27 cells assessed as viable cells at 8 uM incubated for 48 hrs by annexin V FITC/propidium iodide staining based flow cytometry (reference value: 93.0 %); format: functional; details: read-out: Activity
[10] = Toxicity in BALB/c mouse xenografted with human HGC-27 cells assessed as hematocrit level at 150 mg/kg, po bid for 19 days; format: organism-based; details: in vivo, 456 h, time 19 day
HGC-27 [11] = assay: Induction of cell cycle arrest in human HGC-27 cells assessed as upregulation of p27 expression at 0.1 to 1.6 uM incubated for 48 hrs by Western blot analysis; format: functional, cell-based; details: dose 0.1-1.6 µM
[12] = Acute toxicity in Kunming mouse assessed as effect on lung pathology at 1000 mg/kg, po measured after 14 days; format: organism-based; details: in vivo, 336 h, time 14 day
MGC-803 [13] = assay: Induction of apoptosis in human MGC-803 cells assessed as viable cells at 20 uM incubated for 48 hrs by annexin V FITC/propidium iodide staining based flow cytometry (reference value: 94.4 %); format: functional; details: read-out: Activity
HGC-27 [14] = assay: In vivo induction of apoptosis in human HGC-27 cells xenografted in BALB/c mouse assessed as increase in cleaved caspase-3 expression at 75 to 150 mg/kg , po bid administered for 19 days and measured by immunohistochemical analysis; format: functional, organism-based; details: dose 75-150 mg/kg, time 19.0 day
[15] = Toxicity in BALB/c mouse xenografted with human HGC-27 cells assessed as lymphocyte level at 75 mg/kg, po bid for 19 days; format: organism-based; details: in vivo, 456 h, time 19 day
AGS = assay: cells; format: functional, cell-based; details: Homo sapiens, 72 h
Description: Cytotoxicity against human AGS cells assessed as inhibition of cell growth incubated for 72 hrs by MTT assay

HGC-27 [16] = assay: Antitumor activity against human HGC-27 cells xenografted in BALB/c mouse assessed as tumor growth inhibition at 75 mg/kg, po bid administered for 19 days; format: functional; details: HGC-27, 456 h, time 19 day, read-out: TGI
HGC-27 [17] = assay: Induction of apoptosis in human HGC-27 cells assessed as late apoptotic cells at 0.4 uM incubated for 48 hrs by annexin V FITC/propidium iodide staining based flow cytometry (reference value: 5.14 %); format: functional
HGC-27 [18] = assay: Induction of apoptosis in human HGC-27 cells assessed as viable cells at 0.1 uM incubated for 48 hrs by annexin V FITC/propidium iodide staining based flow cytometry (reference value: 93.0 %); format: functional; details: read-out: Activity
[19] = Toxicity in BALB/c mouse xenografted with human HGC-27 cells assessed as RBC level at 150 mg/kg, po bid for 19 days; format: organism-based, Erythrocyte; details: in vivo, 456 h, time 19 day
[20] = Toxicity in BALB/c mouse xenografted with human HGC-27 cells assessed as platelet level at 150 mg/kg, po bid for 19 days; format: organism-based; details: in vivo, 456 h, time 19 day
MGC-803 [21] = assay: Induction of apoptosis in human MGC-803 cells assessed as late apoptotic cells at 20 uM incubated for 48 hrs by annexin V FITC/propidium iodide staining based flow cytometry (reference value: 4.07 %); format: functional
HGC-27 [22] = assay: Induction of cell cycle arrest in human HGC-27 cells assessed as reduction in accumulation of cells at G0/G1 phase at 0.1 to 1.6 uM incubated for 24 hrs by PI staining based flow cytometry analysis; format: functional; details: dose 0.1-1.6 µM
HGC-27 [23] = assay: Induction of apoptosis in human HGC-27 cells assessed as upregulation in cleaved caspase-9 expression at 0.1 to 1.6 uM incubated for 48 hrs by Western blot analysis; format: functional, cell-based; details: dose 0.1-1.6 µM
HGC-27 [24] = assay: In vivo induction of apoptosis in human HGC-27 cells xenografted in BALB/c mouse assessed as increase in cleaved caspase-9 expression at 75 to 150 mg/kg , po bid administered for 19 days and measured by immunohistochemical analysis; format: functional, organism-based; details: dose 75-150 mg/kg, time 19.0 day
HGC-27 [25] = assay: Induction of apoptosis in human HGC-27 cells assessed as early apoptotic cells at 0.4 uM incubated for 48 hrs by annexin V FITC/propidium iodide staining based flow cytometry (reference value: 0.66 %); format: functional
MGC-803 [26] = assay: Induction of cell cycle arrest in human MGC-803 cells assessed as reduction in accumulation of cells at G0/G1 phase at 5 to 20 uM incubated for 24 hrs by PI staining based flow cytometry analysis; format: functional; details: dose 5-20 µM
in vitro = details: human, GES1 cells
Description: Cytotoxicity against human GES1 cells assessed as inhibition of cell growth incubated for 72 hrs by MTT assay

[27] = Toxicity in BALB/c mouse xenografted with human HGC-27 cells assessed as platelet distribution width at 150 mg/kg, po bid for 19 days; format: organism-based; details: in vivo, 456 h, time 19 day
[28] = Toxicity in BALB/c mouse xenografted with human HGC-27 cells assessed as platelet level at 75 mg/kg, po bid for 19 days; format: organism-based; details: in vivo, 456 h, time 19 day
[29] = Toxicity in BALB/c mouse xenografted with human HGC-27 cells assessed as mean platelet volume at 75 mg/kg, po bid for 19 days; format: organism-based; details: in vivo, 456 h, time 19 day
[30] = Toxicity in BALB/c mouse xenografted with human HGC-27 cells assessed as platelet distribution width at 75 mg/kg, po bid for 19 days; format: organism-based; details: in vivo, 456 h, time 19 day
[31] = Toxicity in BALB/c mouse xenografted with human HGC-27 cells assessed as red blood cell distribution width at 75 mg/kg, po bid for 19 days; format: organism-based; details: in vivo, 456 h, time 19 day
[32] = Toxicity in BALB/c mouse xenografted with human HGC-27 cells assessed as mean corpuscular volume at 150 mg/kg, po bid for 19 days; format: organism-based; details: in vivo, 456 h, time 19 day
[33] = Toxicity in BALB/c mouse xenografted with human HGC-27 cells assessed as mean corpuscular volume at 75 mg/kg, po bid for 19 days; format: organism-based; details: in vivo, 456 h, time 19 day

O=C(NCc1ccc(NC(=O)c2ccccc2N2CCCC2)cc1)OCc1cccnc1
viability at 2.5 µM (MGC-803 [1]): 80.3%
Activity (HGC-27 [2]): Active
Activity (HGC-27 [3]): Active
Activity (MGC-803 [4]): Active
Activity (HGC-27 [5]): 11.1%
Activity (HGC-27 [6]): Active
Activity (MGC-803 [7]): 4.32%
Activity (HGC-27 [8]): 2.55%
viability at 8 µM (HGC-27 [9]): 36.2%

O=C(NCc1ccc(NC(=O)c2cc(F)ccc2N2CCCC2)cc1)OCc1cccnc1
Activity [10]: 55.38%
Activity (HGC-27 [11]): Active
Activity [12]: Non-Toxic
viability at 20 µM (MGC-803 [13]): 60.7%
Activity (HGC-27 [14]): Active
Activity [15]: 5.03 10^9/L and 6.57%
pIC50 (AGS): 4.63
inhibition in vivo at 75 mg/kg (HGC-27 [16]): 52.4%
Activity (HGC-27 [17]): 21.3%
viability at 0.1 µM (HGC-27 [18]): 83.5%
Activity [19]: 10.34 10^12/L
Activity [20]: 1711 10^9/L
Activity (MGC-803 [21]): 19.8%
Activity (HGC-27 [22]): Active
Activity (HGC-27 [23]): Active
Activity (HGC-27 [24]): Active
Activity (HGC-27 [25]): 2.63%
Activity (MGC-803 [26]): Active
IC50 at 72 h (in vitro): 90.2 µM
Activity [27]: 17.45
Activity [28]: 1057.33 10^9/L
Activity [29]: 5.6 fL
Activity [30]: 16.93
Activity [31]: 24.4%
Activity [32]: 49.83 fL
Activity [33]: 49.83 fL
